Assays:
CD46 = assay: Cycloheximide flow cytometric chase assay of CD46 protein degradation; format: cell-based; conditions: primary human T cells
transgenic GFP reporter = assay: crRNA-guided knockdown of a transgenic GFP reporter in primary human T cells; format: cell-based; conditions: lentivirally-integrated

Molecule	CD46 expression after CHX addition (CD46)	functional activity: knockdown of GFP reporter (transgenic GFP reporter)
C[C@@H]1C[C@@H]([C@H](O)CC2CC(=O)NC(=O)C2)C(=O)[C@@H](C)C1 [CHX, cycloheximide]	did not reach half-maximal expression prior to T cell apoptosis	
RfxCas13d: Ruminococcus flavefaciens Cas13d, SEQ ID NO: 1 (protein) MIEKKKSFAKGMGVKSTLVSGSKVYMTTFAEGSDARLEKIVEGDSIRSVNEGEAFSAEMADKNAGYKIGNAKFSHPKGYAVVANNPLYTGPVQQDMLGLKETLEKRYFGESADGNDNICIQVIHNILDIEKILAEYITNAAYAVNNISGLDKDIIGFGKFSTVYTYDEFKDPEHHRAAFNNNDKLINAIKAQYDEFDNFLDNPRLGYFGQAFFSKEGRNYIINYGNECYDILALLSGLRHWVVHNNEEESRISRTWLYNLDKNLDNEYISTLNYLYDRITNELTNSFSKNSAANVNYIAETLGINPAEFAEQYFRFSIMKEQKNLGFNITKLREVMLDRKDMSEIRKNHKVFDSIRTKVYTMMDFVIYRYYIEEDAKVAAANKSLPDNEKSLSEKDIFVINLRGSFNDDQKDALYYDEANRIWRKLENIMHNIKEFRGNKTREYKKKDAPRLPRILPAGRDVSAFSKLMYALTMFLDGKEINDLLTTLINKFDNIQSFLKVMPLIGVNAKFVEEYAFFKDSAKIADELRLIKSFARMGEPIADARRAMYIDAIRILGTNLSYDELKALADTFSLDENGNKLKKGKHGMRNFIINNVISNKRFHYLIRYGDPAHLHEIAKNEAVVKFVLGRIADIQKKQGQNGKNQIDRYYETCIGKDKGKSVSEKVDALTKIITGMNYDQFDKKRSVIEDTGRENAEREKFKKIISLYLTVIYHILKNIVNINARYVIGFHCVERDAQLYKEKGYDINLKKLEEKGFSSVTKLCAGIDETAPDKRKDVEKEMAERAKESIDSLESANPKLYANYIKYSDEKKAEEFTRQINREKAKTALNAYLRNTKWNVIIREDLLRIDNKTCTLFRNKAVHLEVARYVHAYINDIAEVNSYFQLYHYIMQRIIMNERYEKSSGKVSEYFDAVNDEKKYNDRLLKLLCVPFGYCIPRFKNLSIEALFDRNEAAKFDKEKKKVSGNS		confirmed the functional activity
